PMC10682951, “Structure-function and rational design of a spider toxin Ssp1a at human voltage-gated sodium channel subtypes” (Frontiers in Pharmacology, 2023)

Assays:
Assay type in all cases: cell-based
hNaV1.2 = biological target: T1, hNaV1.2 (Homo sapiens, UniProt Q99250); assay: Automated whole-cell patch-clamp (QPatch 16X), hNaV1.2; conditions: for IC50: HEK293 cells expressing hNaV1.2 + β1 subunit, QPatch 16X, holding −80 mV, step to 0 mV, peptide incubated 2 min, 0.1% BSA, mean, SEM and n (2-7); for hNaV1.2-selectivity against hNaV1.3: ratio of potencies hNaV1.3 / hNaV1.2
T1 construct: host or cells: HEK293
Method: (§1) Human embryonic kidney 293 (HEK293) cells stably expressing recombinant hNaV1.2, hNaV1.3 and hNaV1.7 and the β1 auxiliary subunit (Scottish Biomedical Drug Discovery, Glasgow, UK) were cultured in Minimal Essential medium (MEM) (Sigma-Aldrich, MO, United States) supplemented with 10% v/v FBS-New Zealand origin (Assay Matrix), 2 mM L-glutamine and selection antibiotics as per manufacturer’s recommendation. The HEK293 cells heterologously expressing mNaV1.7 and F813G-mNaV1.7 were generously provided by Prof Irina Vetter and were cultured in Minimal Essential medium (MEM) (Sigma-Aldrich, MO, United States) supplemented with 10% v/v FBS-New Zealand origin (Assay Matrix), 2 mM L-glutamine and hygromycin 100 μg/mL.
(§2) NaV channel currents from HEK293 cells stably expressing NaV subtypes and the β1 auxiliary subunit were recorded using an automated whole-cell patch clamp system QPatch 16X (Sophion Bioscience A/S, Ballerup, Denmark). As per the manufacturer’s guidelines, the cells were cultured for 48 h to achieve ∼80% confluency, detached using Detachin (Genlantis) and resuspended to 5 × 10^6 cells/mL in serum free media [CHO-cell SFM (Life Technologies), 25 mM HEPES and 100 U/mL penicillin/streptomycin]. The extracellular solution comprised (in mM) 1 CaCl2, 1 MgCl2, 5 HEPES, 3 KCl, 140 NaCl and 20 TEA-Cl, with the pH adjusted to 7.3 with NaOH. The intracellular solution comprised (in mM) 140 CsF, 1 EGTA, 5 CsOH, 10 HEPES and 10 NaCl, with the pH adjusted to 7.3 with CsOH. The osmolarity of both solutions were adjusted to 320 mOsm with sucrose. Compounds were prepared in extracellular solution containing 0.1% bovine serum albumin (Sigma-Aldrich). To obtain the dose-response curves, cells were maintained at a holding potential −80 mV and Na^+ currents were elicited by […] voltage steps to 0 mV from a −120 mV conditioning pulse applied for […]. Increasing concentrations of the peptide were incubated with the cells at the holding potential for 2 min before the voltage protocol was applied.
(§3) The experimental data were analysed using QPatch Assay software v5.6.4 and GraphPad Prism 7.0 using a four-parameter Hill equation [Y = Bottom + (Top—Bottom)/(1 + 10^(Log IC50—X)* Hillslope)] to fit concentration response curves by non-linear regression analysis and Student’s t-test. Data are presented as means ± standard error of mean (SEM) with number of independent experiments stated and p < 0.05 is considered statistically significant. Statistically insignificant shift in the activity is denoted by “little” while small but statistically significant shift in the activity is denoted by “slight” throughout the manuscript.

hNaV1.7 = biological target: T2, hNaV1.7 (Homo sapiens, UniProt Q15858); assay: Automated whole-cell patch-clamp (QPatch 16X), hNaV1.7; conditions: for IC50: HEK293 cells expressing hNaV1.7 + β1 subunit, QPatch 16X, holding −80 mV, step to 0 mV, peptide incubated 2 min, 0.1% BSA, mean, SEM and n (3-9)
T2 construct: host or cells: HEK293
Method: as §1, §2, §3

hNaV1.3 = biological target: T3, hNaV1.3 (Homo sapiens, UniProt Q9NY46); assay: Automated whole-cell patch-clamp (QPatch 16X), hNaV1.3; conditions: for IC50: HEK293 cells expressing hNaV1.3 + β1 subunit, QPatch 16X, holding −80 mV, step to 0 mV, peptide incubated 2 min, 0.1% BSA, mean, SEM and n (3-12)
T3 construct: host or cells: HEK293
Method: as §1, §2, §3

T3 sequence (Q9NY46 whole entry): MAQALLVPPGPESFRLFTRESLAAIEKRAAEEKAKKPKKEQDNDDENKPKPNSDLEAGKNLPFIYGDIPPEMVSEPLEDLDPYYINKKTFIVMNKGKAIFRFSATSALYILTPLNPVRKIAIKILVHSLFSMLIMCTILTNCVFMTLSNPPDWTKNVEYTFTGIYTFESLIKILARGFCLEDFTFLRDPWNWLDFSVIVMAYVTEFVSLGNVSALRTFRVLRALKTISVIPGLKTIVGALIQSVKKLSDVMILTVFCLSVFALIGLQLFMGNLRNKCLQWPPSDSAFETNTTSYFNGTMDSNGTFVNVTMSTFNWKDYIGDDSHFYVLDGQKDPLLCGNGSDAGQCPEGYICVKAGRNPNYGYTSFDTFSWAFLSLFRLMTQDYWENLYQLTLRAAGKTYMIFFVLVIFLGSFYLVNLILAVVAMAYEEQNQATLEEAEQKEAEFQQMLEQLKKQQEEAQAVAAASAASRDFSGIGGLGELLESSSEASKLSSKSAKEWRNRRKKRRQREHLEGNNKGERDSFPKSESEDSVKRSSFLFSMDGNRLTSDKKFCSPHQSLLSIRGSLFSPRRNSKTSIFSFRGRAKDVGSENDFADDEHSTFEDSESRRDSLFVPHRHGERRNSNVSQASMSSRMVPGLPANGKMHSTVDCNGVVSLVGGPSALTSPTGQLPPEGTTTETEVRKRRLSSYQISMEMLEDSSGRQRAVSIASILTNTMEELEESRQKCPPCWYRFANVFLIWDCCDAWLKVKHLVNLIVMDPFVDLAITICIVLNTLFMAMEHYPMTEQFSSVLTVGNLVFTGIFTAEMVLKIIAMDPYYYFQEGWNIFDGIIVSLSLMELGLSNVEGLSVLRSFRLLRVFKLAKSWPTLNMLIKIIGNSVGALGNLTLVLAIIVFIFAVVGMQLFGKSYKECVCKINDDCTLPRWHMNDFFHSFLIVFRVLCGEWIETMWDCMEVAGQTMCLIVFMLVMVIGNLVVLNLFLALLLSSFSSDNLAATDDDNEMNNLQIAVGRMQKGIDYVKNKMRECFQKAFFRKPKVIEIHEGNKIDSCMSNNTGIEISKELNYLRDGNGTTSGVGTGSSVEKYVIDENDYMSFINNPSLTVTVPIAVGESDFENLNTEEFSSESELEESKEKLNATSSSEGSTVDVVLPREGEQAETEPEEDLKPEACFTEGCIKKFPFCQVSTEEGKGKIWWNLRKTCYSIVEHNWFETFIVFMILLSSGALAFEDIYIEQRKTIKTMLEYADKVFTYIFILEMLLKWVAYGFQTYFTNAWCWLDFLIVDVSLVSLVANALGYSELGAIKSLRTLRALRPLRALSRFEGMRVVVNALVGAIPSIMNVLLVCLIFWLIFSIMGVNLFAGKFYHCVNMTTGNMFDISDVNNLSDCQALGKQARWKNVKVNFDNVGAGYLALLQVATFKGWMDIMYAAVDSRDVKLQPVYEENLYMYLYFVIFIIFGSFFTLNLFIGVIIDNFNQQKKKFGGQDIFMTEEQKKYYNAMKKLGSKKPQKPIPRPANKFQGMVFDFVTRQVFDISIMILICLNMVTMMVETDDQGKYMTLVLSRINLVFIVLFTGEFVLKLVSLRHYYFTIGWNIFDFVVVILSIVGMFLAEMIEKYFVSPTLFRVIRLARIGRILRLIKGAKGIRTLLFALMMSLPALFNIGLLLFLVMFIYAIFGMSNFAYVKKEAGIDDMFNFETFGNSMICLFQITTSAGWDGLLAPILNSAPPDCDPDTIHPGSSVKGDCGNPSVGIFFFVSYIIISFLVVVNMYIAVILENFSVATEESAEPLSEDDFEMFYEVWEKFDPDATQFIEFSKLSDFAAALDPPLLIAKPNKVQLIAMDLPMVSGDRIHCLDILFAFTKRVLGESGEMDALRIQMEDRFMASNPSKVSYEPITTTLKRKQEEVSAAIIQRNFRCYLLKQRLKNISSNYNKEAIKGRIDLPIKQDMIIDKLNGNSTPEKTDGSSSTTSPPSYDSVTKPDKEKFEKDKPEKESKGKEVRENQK
T3 sequence (Q07699 19-218, further chain): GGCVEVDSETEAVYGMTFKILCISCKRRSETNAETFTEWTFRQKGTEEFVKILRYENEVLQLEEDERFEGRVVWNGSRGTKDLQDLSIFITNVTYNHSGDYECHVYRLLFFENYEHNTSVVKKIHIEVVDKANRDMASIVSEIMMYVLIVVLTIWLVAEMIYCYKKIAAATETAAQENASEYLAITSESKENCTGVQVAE
T1 sequence (Q07699 19-218): as the sequence (Q07699 19-218, further chain) above
T1 sequence (Q99250 whole entry): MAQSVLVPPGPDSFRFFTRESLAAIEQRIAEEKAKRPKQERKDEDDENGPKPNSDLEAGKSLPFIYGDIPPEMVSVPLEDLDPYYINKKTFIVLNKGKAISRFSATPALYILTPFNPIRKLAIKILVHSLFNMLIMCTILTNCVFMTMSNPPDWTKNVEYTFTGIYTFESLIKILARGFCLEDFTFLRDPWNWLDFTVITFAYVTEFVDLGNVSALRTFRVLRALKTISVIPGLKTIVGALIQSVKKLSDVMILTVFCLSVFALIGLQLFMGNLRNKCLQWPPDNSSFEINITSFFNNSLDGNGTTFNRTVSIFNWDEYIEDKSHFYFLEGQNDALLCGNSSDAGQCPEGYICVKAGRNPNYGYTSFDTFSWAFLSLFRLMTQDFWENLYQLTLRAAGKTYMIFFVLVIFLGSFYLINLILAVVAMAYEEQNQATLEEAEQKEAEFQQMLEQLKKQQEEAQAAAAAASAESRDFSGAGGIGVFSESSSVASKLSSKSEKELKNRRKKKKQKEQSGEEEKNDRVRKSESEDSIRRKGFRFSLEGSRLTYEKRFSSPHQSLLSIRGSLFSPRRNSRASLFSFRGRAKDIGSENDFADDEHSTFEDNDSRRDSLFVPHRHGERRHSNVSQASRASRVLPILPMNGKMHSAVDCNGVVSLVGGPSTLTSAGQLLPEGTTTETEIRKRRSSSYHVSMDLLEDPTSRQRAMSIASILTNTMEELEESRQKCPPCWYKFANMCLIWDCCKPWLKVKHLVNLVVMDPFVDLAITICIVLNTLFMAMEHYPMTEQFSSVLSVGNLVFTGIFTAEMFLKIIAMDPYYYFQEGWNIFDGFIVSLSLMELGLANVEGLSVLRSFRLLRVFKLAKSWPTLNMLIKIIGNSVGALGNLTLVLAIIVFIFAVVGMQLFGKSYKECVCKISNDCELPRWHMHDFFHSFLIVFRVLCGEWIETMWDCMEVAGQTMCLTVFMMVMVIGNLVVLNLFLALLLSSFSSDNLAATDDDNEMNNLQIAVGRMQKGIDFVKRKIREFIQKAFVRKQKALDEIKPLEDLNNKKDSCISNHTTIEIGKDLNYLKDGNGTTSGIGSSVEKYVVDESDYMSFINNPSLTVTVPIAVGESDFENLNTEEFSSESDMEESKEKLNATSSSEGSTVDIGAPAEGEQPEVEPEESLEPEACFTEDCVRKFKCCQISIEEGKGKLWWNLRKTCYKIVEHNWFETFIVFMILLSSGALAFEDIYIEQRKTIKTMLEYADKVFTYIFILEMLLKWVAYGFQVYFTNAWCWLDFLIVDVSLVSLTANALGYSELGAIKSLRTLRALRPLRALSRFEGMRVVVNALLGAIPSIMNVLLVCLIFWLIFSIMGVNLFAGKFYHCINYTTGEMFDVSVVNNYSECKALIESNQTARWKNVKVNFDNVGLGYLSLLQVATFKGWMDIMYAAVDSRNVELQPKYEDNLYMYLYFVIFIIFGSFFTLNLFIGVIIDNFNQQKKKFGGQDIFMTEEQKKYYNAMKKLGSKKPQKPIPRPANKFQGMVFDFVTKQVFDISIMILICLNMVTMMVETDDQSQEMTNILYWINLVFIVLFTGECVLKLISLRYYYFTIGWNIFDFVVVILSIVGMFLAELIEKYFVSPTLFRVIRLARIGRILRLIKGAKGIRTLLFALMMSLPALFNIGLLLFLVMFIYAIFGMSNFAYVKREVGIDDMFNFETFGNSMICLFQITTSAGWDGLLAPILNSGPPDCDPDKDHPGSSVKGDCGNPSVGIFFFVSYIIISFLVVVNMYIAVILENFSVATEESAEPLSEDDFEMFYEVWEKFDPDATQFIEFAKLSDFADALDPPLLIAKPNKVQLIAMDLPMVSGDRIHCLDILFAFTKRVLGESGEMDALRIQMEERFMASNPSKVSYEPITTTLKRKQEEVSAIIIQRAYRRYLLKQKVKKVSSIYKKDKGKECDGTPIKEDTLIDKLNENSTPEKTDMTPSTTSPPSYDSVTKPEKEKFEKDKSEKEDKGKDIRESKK

Row | Structure (SMILES) | IC50 (hNaV1.2) | IC50 (hNaV1.7) | IC50 (hNaV1.3) | inhibition at 3 µM (hNaV1.2; 3 µM peptide, QPatch, partial inhibition) | inhibition at 3 µM (hNaV1.7; 3 µM peptide, QPatch) | inhibition at 3 µM (hNaV1.3; 3 µM peptide, QPatch, read-out: Inhibition (block) of hNaV1.3 at 3 µM) | Activity at hNaV1.3 (in words) (hNaV1.3; alanine mutant vs rSsp1a) | hNaV1.2-selectivity against hNaV1.3 (hNaV1.2)
1 | CC(C)C[C@H](NC(=O)[C@H](CC(=O)O)NC(=O)[C@H](Cc1ccc(O)cc1)NC(=O)[C@H](CCCNC(=N)N)NC(=O)[C@@H]1CSSC[C@@H]2NC(=O)[C@H](CCCCN)NC(=O)[C@H](CC(N)=O)NC(=O)[C@H](CC(N)=O)NC(=O)[C@H](CC(N)=O)NC(=O)[C@@H]3CCCN3C(=O)[C@H](CC(=O)O)NC(=O)[C@@H]3CSSC[C@H](NC(=O)[C@H](C(C)C)NC(=O)[C@H](Cc4ccc(O)cc4)NC(=O)CNC(=O)[C@H](CCC(=O)O)NC(=O)[C@H](CSSC[C@H](NC(=O)[C@H](CC(=O)O)NC(=O)CN)C(=O)N[C@@H](CC(C)C)C(=O)NCC(=O)N[C@@H](Cc4ccccc4)C(=O)N[C@@H](Cc4ccccc4)C(=O)N[C@@H](CO)C(=O)NCC(=O)N3)NC2=O)C(=O)N[C@@H](Cc2c[nH]cn2)C(=O)N[C@@H](Cc2c[nH]c3ccccc23)C(=O)N[C@@H](CCCCN)C(=O)N[C@@H](Cc2ccc(O)cc2)C(=O)N2CCC[C@H]2C(=O)N[C@@H](Cc2c[nH]c3ccccc23)C(=O)N1)C(=O)O [W5F] | 579 nM | 1260 nM | > 3000 nM |  |  |  |  | 
2 | CC(C)C[C@H](NC(=O)[C@H](CC(=O)O)NC(=O)[C@H](Cc1ccc(O)cc1)NC(=O)[C@H](CCCNC(=N)N)NC(=O)[C@@H]1CSSC[C@@H]2NC(=O)[C@H](CCCCN)NC(=O)[C@H](CC(N)=O)NC(=O)[C@H](CC(N)=O)NC(=O)[C@H](CC(N)=O)NC(=O)[C@@H]3CCCN3C(=O)[C@H](CC(=O)O)NC(=O)[C@@H]3CSSC[C@H](NC(=O)[C@H](C(C)C)NC(=O)[C@H](Cc4ccc(O)cc4)NC(=O)CNC(=O)[C@H](CCC(=O)O)NC(=O)[C@H](CSSC[C@H](NC(=O)[C@H](CC(=O)O)NC(=O)CN)C(=O)N[C@@H](CC(C)C)C(=O)NCC(=O)N[C@@H](Cc4c[nH]c5ccccc45)C(=O)N[C@@H](Cc4ccccc4)C(=O)N[C@@H](CO)C(=O)NCC(=O)N3)NC2=O)C(=O)N[C@@H](Cc2c[nH]cn2)C(=O)N[C@@H](CCCNC(=N)N)C(=O)N[C@@H](CCCCN)C(=O)N[C@@H](Cc2ccc(O)cc2)C(=O)N2CCC[C@H]2C(=O)N[C@@H](Cc2c[nH]c3ccccc23)C(=O)N1)C(=O)O [W24R] | 423 nM | > 3000 nM | 1190 nM | ~65% | ~50% | ~75% |  | 
3 | CC(C)C[C@H](NC(=O)[C@H](CC(=O)O)NC(=O)[C@H](Cc1ccc(O)cc1)NC(=O)[C@H](CCCNC(=N)N)NC(=O)[C@@H]1CSSC[C@@H]2NC(=O)[C@H](CCCCN)NC(=O)[C@H](CC(N)=O)NC(=O)[C@H](CC(N)=O)NC(=O)[C@H](CC(N)=O)NC(=O)[C@@H]3CCCN3C(=O)[C@H](CC(=O)O)NC(=O)[C@@H]3CSSC[C@H](NC(=O)[C@H](C(C)C)NC(=O)[C@H](Cc4ccc(O)cc4)NC(=O)CNC(=O)[C@H](CCC(=O)O)NC(=O)[C@H](CSSC[C@H](NC(=O)[C@H](CC(=O)O)NC(=O)CN)C(=O)N[C@@H](CC(C)C)C(=O)NCC(=O)N[C@@H](Cc4c[nH]c5ccccc45)C(=O)N[C@@H](Cc4ccccc4)C(=O)N[C@@H](CCCNC(=N)N)C(=O)NCC(=O)N3)NC2=O)C(=O)N[C@@H](Cc2c[nH]cn2)C(=O)N[C@@H](Cc2c[nH]c3ccccc23)C(=O)N[C@@H](CCCCN)C(=O)N[C@@H](Cc2ccc(O)cc2)C(=O)N2CCC[C@H]2C(=O)N[C@@H](Cc2c[nH]c3ccccc23)C(=O)N1)C(=O)O [S7R] | 153 nM | 94 nM | 333 nM |  |  |  |  | 
4 | CC(C)C[C@H](NC(=O)[C@H](CC(=O)O)NC(=O)[C@H](Cc1ccc(O)cc1)NC(=O)[C@H](CCCNC(=N)N)NC(=O)[C@@H]1CSSC[C@@H]2NC(=O)[C@H](CCCCN)NC(=O)[C@H](CC(N)=O)NC(=O)[C@H](CC(N)=O)NC(=O)[C@H](CC(N)=O)NC(=O)[C@@H]3CCCN3C(=O)[C@H](CC(=O)O)NC(=O)[C@@H]3CSSC[C@H](NC(=O)[C@H](C(C)C)NC(=O)[C@H](C)NC(=O)CNC(=O)[C@H](CCC(=O)O)NC(=O)[C@H](CSSC[C@H](NC(=O)[C@H](CC(=O)O)NC(=O)CN)C(=O)N[C@@H](CC(C)C)C(=O)NCC(=O)N[C@@H](Cc4c[nH]c5ccccc45)C(=O)N[C@@H](Cc4ccccc4)C(=O)N[C@@H](CO)C(=O)NCC(=O)N3)NC2=O)C(=O)N[C@@H](Cc2c[nH]cn2)C(=O)N[C@@H](Cc2c[nH]c3ccccc23)C(=O)N[C@@H](CCCCN)C(=O)N[C@@H](Cc2ccc(O)cc2)C(=O)N2CCC[C@H]2C(=O)N[C@@H](Cc2c[nH]c3ccccc23)C(=O)N1)C(=O)O [Y20A] | 1840 nM | 1270 nM | > 3000 nM |  |  |  | inactive | 
5 | CC(C)C[C@@H]1NC(=O)[C@@H](NC(=O)[C@H](CC(=O)O)NC(=O)CN)CSSC[C@@H]2NC(=O)[C@@H]3CSSC[C@@H](C(=O)N[C@@H](CCCNC(=N)N)C(=O)N[C@@H](Cc4ccc(O)cc4)C(=O)N[C@@H](CC(=O)O)C(=O)N[C@@H](C)C(=O)O)NC(=O)[C@H](Cc4c[nH]c5ccccc45)NC(=O)[C@@H]4CCCN4C(=O)[C@H](Cc4ccc(O)cc4)NC(=O)[C@H](CCCCN)NC(=O)[C@H](Cc4c[nH]c5ccccc45)NC(=O)[C@H](Cc4c[nH]cn4)NC(=O)[C@H](CSSC[C@H](NC(=O)CNC(=O)[C@H](CO)NC(=O)[C@H](Cc4ccccc4)NC(=O)[C@H](Cc4c[nH]c5ccccc45)NC(=O)CNC1=O)C(=O)N[C@@H](CC(=O)O)C(=O)N1CCC[C@H]1C(=O)N[C@@H](CC(N)=O)C(=O)N[C@@H](CC(N)=O)C(=O)N[C@@H](CC(N)=O)C(=O)N[C@@H](CCCCN)C(=O)N3)NC(=O)[C@H](C(C)C)NC(=O)[C@H](Cc1ccc(O)cc1)NC(=O)CNC(=O)[C@H](CCC(=O)O)NC2=O [L33A] | 396 nM | 448 nM | > 3000 nM |  |  |  |  | 
6 | CC(C)C[C@H](NC(=O)[C@H](CC(=O)O)NC(=O)[C@H](Cc1ccc(O)cc1)NC(=O)[C@H](CCCNC(=N)N)NC(=O)[C@@H]1CSSC[C@@H]2NC(=O)[C@H](CCCCN)NC(=O)[C@H](CC(N)=O)NC(=O)[C@H](CC(N)=O)NC(=O)[C@H](CC(N)=O)NC(=O)[C@@H]3CCCN3C(=O)[C@H](CC(=O)O)NC(=O)[C@@H]3CSSC[C@H](NC(=O)[C@H](C(C)C)NC(=O)[C@H](Cc4ccc(O)cc4)NC(=O)CNC(=O)[C@H](CCC(=O)O)NC(=O)[C@H](CSSC[C@H](NC(=O)[C@H](CC(=O)O)NC(=O)CN)C(=O)N[C@@H](CC(C)C)C(=O)NCC(=O)N[C@@H](Cc4c[nH]c5ccccc45)C(=O)N[C@@H](Cc4ccccc4)C(=O)N[C@@H](CO)C(=O)NCC(=O)N3)NC2=O)C(=O)N[C@@H](Cc2c[nH]cn2)C(=O)N[C@@H](Cc2c[nH]c3ccccc23)C(=O)N[C@@H](CCCCN)C(=O)N[C@@H](Cc2ccc(O)cc2)C(=O)N[C@@H](CCCNC(=N)N)C(=O)N[C@@H](Cc2c[nH]c3ccccc23)C(=O)N1)C(=O)O [P27R] | 77 nM | 141 nM | > 1000 nM |  |  |  |  | > 10 fold
7 | CC(C)C[C@H](NC(=O)[C@H](Cc1ccc(O)cc1)NC(=O)[C@H](Cc1ccc(O)cc1)NC(=O)[C@H](CCCNC(=N)N)NC(=O)[C@@H]1CSSC[C@@H]2NC(=O)[C@H](CCCCN)NC(=O)[C@H](CC(N)=O)NC(=O)[C@H](CC(N)=O)NC(=O)[C@H](CC(N)=O)NC(=O)[C@@H]3CCCN3C(=O)[C@H](CC(=O)O)NC(=O)[C@@H]3CSSC[C@H](NC(=O)[C@H](C(C)C)NC(=O)[C@H](Cc4ccc(O)cc4)NC(=O)CNC(=O)[C@H](CCC(=O)O)NC(=O)[C@H](CSSC[C@H](NC(=O)[C@H](CC(=O)O)NC(=O)CN)C(=O)N[C@@H](CC(C)C)C(=O)NCC(=O)N[C@@H](Cc4c[nH]c5ccccc45)C(=O)N[C@@H](Cc4ccccc4)C(=O)N[C@@H](CO)C(=O)NCC(=O)N3)NC2=O)C(=O)N[C@@H](Cc2c[nH]cn2)C(=O)N[C@@H](Cc2c[nH]c3ccccc23)C(=O)N[C@@H](CCCCN)C(=O)N[C@@H](Cc2ccc(O)cc2)C(=O)N2CCC[C@H]2C(=O)N[C@@H](Cc2c[nH]c3ccccc23)C(=O)N1)C(=O)O [D32Y] | 75 nM | 110 nM | 417 nM |  |  |  |  | ~6 fold
